Measured values: EPA's ToxRefDB 2

Columns and labels:
mouse [1] = settings: Carcinogenicity; cd1; Oral; Feed; dose end: 18 month; group: systemic; systemic / pathology gross / kidney / reduced size + systemic / pathology microscopic / kidney / inflammation + systemic / pathology …
rat [2] = settings: Subchronic oral toxicity in rodents, fischer, Feed, dose end: 13 week, group: systemic
rat [3] = settings: Multigenerational reproductive toxicity study, sprague dawley, Oral, Feed, dose end: 2 generation
rat [4] = settings: Subchronic oral toxicity in rodents, wistar, Feed, dose end: 90 day, group: systemic
rat [5] = settings: Combined chronic toxicity/carcinogenicity, fischer, Oral, Feed, dose end: 24 month, group: systemic
mouse [6] = settings: Sub-acute repeat dose toxicity, cd1, Oral, Feed, dose end: 4 week, group: systemic
rat [7] = settings: Multigenerational reproductive toxicity study, sprague dawley, Oral, Feed, dose end: 2 generation; remark: listed apart in the source
mouse [8] = settings: Carcinogenicity, other, Oral, Feed, dose end: 18 month, group: systemic
rat [9] = settings: Prenatal developmental toxicity study, other, Oral, Gavage/Intubation, dose end: 15 GD
rat [10] = settings: Combined chronic toxicity/carcinogenicity, sprague dawley, Oral, Feed, dose end: 24 month, group: systemic
dog [11] = settings: Chronic toxicity, beagle, Oral, Feed, dose end: 52 week, group: systemic
rat [12] = settings: Multigenerational reproductive toxicity study, other, Oral, Feed, dose end: 2 generation
dog [13] = settings: Subchronic oral toxicity in nonrodent, beagle, Feed, dose end: 13 week, group: systemic
rabbit = settings: Prenatal developmental toxicity study, other, Oral, Gavage/Intubation, dose end: 19 GD
rat [14] = settings: Subchronic oral toxicity in rodents, other, Feed, dose end: 3 month, group: systemic, systemic / clinical chemistry / alkaline phosphatase (alp/alk) / alkaline phosphatase (alp/alk) + systemic / in life observation / body …
[15] = group: offspring, developmental / offspring survival late / viability index / viability index
[16] = group: offspring, developmental / offspring survival late / viability index / viability index + systemic / in life observation / body weight / offspring (pup…
[17] = group: parental, systemic / organ weight / kidney / relative to body weight
[18] = group: parental, systemic / organ weight / kidney / relative to body weight + systemic / organ weight / kidney / absolute + systemic / pathology gross / …
[19] = systemic / pathology microscopic / kidney / inflammation + systemic / in life observation / mortality / mortality + systemic / pathology …
[20] = systemic / in life observation / clinical signs / perineal soiling + systemic / organ weight / adrenal gland / relative to body weight + …
[21] = systemic / pathology microscopic / kidney / degeneration
[22] = systemic / pathology microscopic / kidney / degeneration + systemic / in life observation / body weight / body weight gain + systemic / in …
[23] = group: parental, systemic / organ weight / kidney / absolute + systemic / organ weight / kidney / relative to body weight
[24] = group: reproductive, reproductive / offspring survival early / dead fetuses / dead fetuses + reproductive / offspring survival early / litter size / litter size
[25] = systemic / in life observation / body weight / body weight + systemic / organ weight / spleen / relative to body weight
[26] = group: developmental, developmental / developmental malformation / bone / incomplete ossification
[27] = group: developmental, developmental / developmental malformation / bone / incomplete ossification + developmental / developmental malformation / bone / dumbbell …
[28] = group: maternal, systemic / in life observation / body weight / body weight gain + systemic / in life observation / food consumption / food consumption
[29] = systemic / pathology microscopic / liver / hypertrophy
[30] = systemic / pathology microscopic / liver / hypertrophy + systemic / clinical chemistry / albumin / albumin + systemic / clinical chemistry…
[31] = systemic / hematology / anemia / anemia - nos + systemic / clinical chemistry / cholesterol / cholesterol + systemic / clinical chemistry / …
[32] = group: offspring, developmental / developmental landmark / eye opening / eye opening + systemic / in life observation / body weight / offspring (pup) weight
[33] = group: parental, systemic / organ weight / liver / relative to body weight
[34] = systemic / clinical chemistry / alkaline phosphatase (alp/alk) / alkaline phosphatase (alp/alk) + systemic / organ weight / liver / absolute…
[35] = systemic / organ weight / liver / relative to body weight
[36] = group: developmental, developmental / developmental malformation / bone / full supernumerary
[37] = group: developmental, developmental / developmental malformation / bone / full supernumerary + developmental / developmental malformation / bone / extra …
[38] = group: maternal, systemic / in life observation / body weight / body weight gain + systemic / in life observation / food consumption / food consumption + …

## Nc1c(Cl)c(F)nc(OCC(=O)O)c1Cl [Fluroxypyr]
Mouse [1]
  LEL: 1000 mg/kg/day
  LOAEL: 1000 mg/kg/day
  NEL: 300 mg/kg/day
  NOAEL: 300 mg/kg/day
Rat [2]; systemic / hematology / hemoglobin (hgb) / hemoglobin (hgb) + systemic / urinalysis / specific gravity/osmolality / specific gravity/…
  LEL: 700 mg/kg/day
Rat [2]; systemic / in life observation / body weight / body weight gain + systemic / organ weight / testes / absolute + systemic / hematology / …
  NEL: 320 mg/kg/day
Rat [2]; systemic / organ weight / brain / absolute + systemic / hematology / erythrocyte (rbc) count differential / erythrocyte (rbc) + systemic / …
  NOAEL: 700 mg/kg/day
Rat [2]; systemic / organ weight / brain / absolute + systemic / in life observation / body weight / body weight gain + systemic / organ weight / …
  LOAEL: 1000 mg/kg/day
Rat [3]; [15]
  LEL: 500 mg/kg/day
  LOAEL: 500 mg/kg/day
Rat [3]; [16]
  NEL: 100 mg/kg/day
  NOAEL: 100 mg/kg/day
Rat [3]; [17]
  LEL: 100 mg/kg/day
  NEL: < 100 mg/kg/day
Rat [3]; [18]
  LOAEL: 500 mg/kg/day
  NOAEL: 100 mg/kg/day
Rat [4]; [19]
  LEL: 750 mg/kg/day
  LOAEL: 750 mg/kg/day
Rat [4]; systemic / urinalysis / ph / ph + systemic / clinical chemistry / alanine aminotransferase (alt/sgpt) / alanine aminotransferase (alt/sgpt…
  NEL: 80 mg/kg/day
Rat [5]; [20]
  LEL: 100 mg/kg/day
  NEL: < 100 mg/kg/day
  NOAEL: 100 mg/kg/day
Rat [5]; systemic / organ weight / kidney / relative to body weight + systemic / pathology microscopic / kidney / nephropathy + systemic / organ …
  LOAEL: 500 mg/kg/day
Mouse [6]; [21]
  LEL: 132 mg/kg/day
  LOAEL: 132 mg/kg/day
Mouse [6]; [22]
  NEL: 14 mg/kg/day
  NOAEL: 14 mg/kg/day
Rat [7]; group: offspring, developmental / developmental malformation / general / runts
  LEL: 500 mg/kg/day
Rat [7]; group: offspring, developmental / developmental malformation / general / runts + developmental / developmental malformation / eye / anophthalmia + …
  NEL: 100 mg/kg/day
Rat [7]; group: offspring, developmental / developmental malformation / general / runts + systemic / in life observation / body weight / offspring (pup) weight gain + …
  NOAEL: 500 mg/kg/day
Rat [7]; group: offspring, systemic / in life observation / body weight / offspring (pup) weight gain + systemic / in life observation / body weight / offspring (pup) …
  LOAEL: 750 mg/kg/day
Rat [7]; group: parental, systemic / organ weight / kidney / absolute + systemic / in life observation / body weight / body weight + systemic / in life observation / …
  NOAEL: 100 mg/kg/day
Rat [7]; [23]
  LEL: 100 mg/kg/day
  NEL: < 100 mg/kg/day
Rat [7]; group: parental, systemic / organ weight / kidney / absolute + systemic / organ weight / kidney / relative to body weight + systemic / pathology microscopic…
  LOAEL: 500 mg/kg/day
Rat [7]; [24]
  LEL: 750 mg/kg/day
  LOAEL: 750 mg/kg/day
  NEL: 500 mg/kg/day
  NOAEL: 500 mg/kg/day

## CC1=NNC(=O)N(/N=C/c2cccnc2)C1 [Pymetrozine]
Mouse [8]; systemic / in life observation / body weight / body weight + systemic / organ weight / liver / relative to body weight + systemic / …
  NOAEL: 12 mg/kg/day
Mouse [8]; [25]
  LEL: 1.2 mg/kg/day
  NEL: < 1.2 mg/kg/day
Mouse [8]; systemic / organ weight / liver / relative to body weight + systemic / pathology microscopic / liver / hypertrophy + systemic / pathology …
  LOAEL: 250 mg/kg/day
Rat [9]; [26]
  LEL: 30 mg/kg/day
  NEL: < 30 mg/kg/day
Rat [9]; [27]
  LOAEL: 300 mg/kg/day
  NOAEL: 100 mg/kg/day
Rat [9]; [28]
  LEL: 100 mg/kg/day
  LOAEL: 100 mg/kg/day
  NEL: 30 mg/kg/day
  NOAEL: 30 mg/kg/day
Rat [10]; [29]
  LEL: 3.76 mg/kg/day
  LOAEL: 3.76 mg/kg/day
Rat [10]; [30]
  NEL: 0.377 mg/kg/day
  NOAEL: 0.377 mg/kg/day
Dog [11]; systemic / clinical chemistry / cholesterol / cholesterol + systemic / organ weight / liver / absolute + systemic / organ weight / liver / …
  LEL: 5.33 mg/kg/day
Dog [11]; [31]
  NEL: 0.57 mg/kg/day
  NOAEL: 5.33 mg/kg/day
Dog [11]; systemic / hematology / anemia / anemia - nos + systemic / pathology microscopic / intestine large / [other] + systemic / pathology …
  LOAEL: 27.8 mg/kg/day
Rat [12]; [32]
  LEL: 100 mg/kg/day
  LOAEL: 100 mg/kg/day
  NEL: 10 mg/kg/day
  NOAEL: 10 mg/kg/day
Rat [12]; [33]
  LEL: 1.7 mg/kg/day
  NEL: < 1.7 mg/kg/day
Rat [12]; group: parental, systemic / pathology microscopic / liver / hypertrophy
  LOAEL: 13.9 mg/kg/day
Rat [12]; group: parental, systemic / pathology microscopic / liver / hypertrophy + systemic / in life observation / body weight / body weight + systemic / in life …
  NOAEL: 1.4 mg/kg/day
Dog [13]; [34]
  LOAEL: 14 mg/kg/day
  NOAEL: 3.12 mg/kg/day
Dog [13]; [35]
  LEL: 3.12 mg/kg/day
  NEL: < 3.12 mg/kg/day
rabbit; [36]
  LEL: 75 mg/kg/day
  LOAEL: 75 mg/kg/day
rabbit; [37]
  NEL: 10 mg/kg/day
  NOAEL: 10 mg/kg/day
rabbit; [38]
  LEL: 75 mg/kg/day
  LOAEL: 75 mg/kg/day
  NEL: 10 mg/kg/day
  NOAEL: 10 mg/kg/day
Rat [14]
  LEL: 360 mg/kg/day
  LOAEL: 360 mg/kg/day
  NOAEL: 32.5 mg/kg/day
